According to article PMC12474366, “Metabolic Profiling, Tissue Distribution, and Tolerance Assessment of Bopu Powder in Laying Hens Following Long-Term Dietary Administration” (Veterinary Sciences, 2025):
“And” between values parts separate entries of the source, which are not always exact repeats. Equal values may be shown once. Read-outs that look alike come from different tables or passages of the source.

Experiments:
[1] = parameters: method as in PMID 39805195; conditions: broiler hepatic microsomes, stable isotope tracing; cited from earlier work
[2] = Metabolite identification in plasma and feces after intravenous PRO or ALL (LC-Q-TOF-MS)
Procedure: (§1) Nine hens were allocated to the metabolic study. These birds were randomly divided into three groups (n = 3 per group): the blank control group, the PRO group, and the ALL group.
(§2) Plasma: Blood samples were collected from the subcutaneous ulnar vein at 5, 10, 20, 30, 60, and 120 min post-administration. Samples were centrifuged at 4 °C and 3200× g for 10 min. The supernatant (plasma) was collected and stored at −80 °C for subsequent metabolite analysis.
(§3) Feces: Feces were collected over the intervals 0–6 h, 6–12 h, 12–24 h, and 24–48 h following intravenous administration. All fecal samples were immediately stored at −80 °C.
(§4) Plasma: Plasma samples stored at −80 °C were thawed at room temperature. A pooled plasma sample was prepared by combining equal volumes of plasma from each designated collection timepoint. A 200 μL aliquot of this pooled plasma was precisely transferred into a 1.5 mL microcentrifuge tube. Subsequently, 800 μL of acetonitrile was added to precipitate proteins, and the mixture was vortex-mixed vigorously for 2 min. Following protein precipitation, the tube was sealed and sonicated for 20 min. The sample was then centrifuged at 12,000× g for 10 min. The resulting supernatant was carefully collected and evaporated to dryness under a gentle stream of nitrogen at room temperature. The dried residue was reconstituted in 200 μL of acetonitrile, vortex-mixed for 2 min, and centrifuged again at 12,000× g for 5 min. Finally, the supernatant was filtered through a 0.22 μm organic membrane filter prior to LC-MS/MS analysis.
(§5) Feces: Fecal samples stored at −80 °C were thawed at room temperature and homogenized. A 2.00 g aliquot of the homogenized feces was accurately weighed into a 50 mL centrifuge tube. Ten milliliters of acetonitrile, serving as the extraction solvent, was added to the sample, which was then vortex-mixed for 5 min. The tube was sealed and subjected to sonication for 20 min.

[3] = Residues of PRO and ALL in laying hens' tissues and eggs after 56-day dietary Bopu Powder (LC-QQQ-MS); conditions: mean ± sd; for concentration at 56 days: female, Roman Gray, chicken (laying hens), in vivo, n = 6, LOD 1 ng/g wet weight
Procedure: Throughout the experimental period, the hens were housed in cages under standard laboratory conditions, with ad libitum access to feed and water. Following a 7-day acclimatization period, standardized feeding regimens and routine health management procedures, including biosecurity protocols, were implemented. […] Three experimental groups were established: CN (control, no additive), BP (50 mg/kg additive), and BPX (500 mg/kg additive). The study employed a randomized design with 6 replicates per group and 18 hens per replicate. The feeding trial duration was 56 days.
Additionally, at the end of week 8, from each replicate group, one hen was randomly selected. A 10 mL blood sample was collected from the subcutaneous ulnar vein; 5 mL was transferred into an EDTA-K2 anticoagulant tube, gently mixed, and centrifuged at 3000× g for 10 min. The separated plasma was transferred into EP tubes (Eppendorf tubes) and stored at −20 °C for residue analysis.
Eggs: During weeks 4 and 8 of the trial, two eggs per replicate group, approximating the mean egg weight, were collected and stored at 4 °C until analysis.
Segments of jejunum, ileum, liver, ovary, oviduct, uterus, pectoral muscle, thigh muscle, gizzard, abdominal fat, and subcutaneous fat were individually wrapped in aluminum foil, flash-frozen in liquid nitrogen, and stored at −80 °C pending analysis.
Eggs: Two grams of homogenized whole egg liquid was transferred into a 50 mL centrifuge tube containing homogenization beads. Twenty microliters of the 1 mg/L internal standard (IS) working solution was precisely added, followed by vortex mixing for 30 s. Subsequently, 10 mL of acetonitrile was added and the mixture was vortex-mixed for 5 min to facilitate extraction. The sample was then centrifuged at 8000× g for 5 min. Five milliliters of the resulting supernatant was transferred to a ten-milliliter centrifuge tube, combined with three milliliters of n-hexane, and vortex-mixed for 1 min. After phase separation, the upper n-hexane layer was carefully removed using a rubber-bulb pipette. Then, 1 mL of the lower aqueous acetonitrile phase was collected, evaporated to dryness under a nitrogen stream, and reconstituted in 0.5 mL of acetonitrile with 30 s of vortex mixing. The final extract was filtered through a 0.22 μm organic solvent-compatible membrane prior to LC-MS/MS analysis. Only two quality control (QC) measures were implemented: parallel duplicate samples, and blank/carryover checks.
Tissues: Tissue samples stored at −80 °C were thawed to room temperature. Approximately 2 g of tissue was weighed into a 50 mL screw-cap centrifuge tube. Twenty microliters of freshly prepared 20 mg·L^−1 IS solution and 1 mL of physiological saline were added.

[4] = porcine liver S9 fractions; cited from earlier work
[5] = rat liver S9 fractions; cited from earlier work
[6] = cited from earlier work
[7] = parameters: method as in doi:10.19378/j.issn.1003-9783.2020.12.010; conditions: rats, oral administration of ALL; cited from earlier work
[8] = cited from earlier work; remark: listed apart in the source
[9] = in vivo, iv, 1 mg/kg
Procedure: as §1, §2, §3, §4, §5

[10] = test system: carbon tetrachloride, acetaminophen, and simvastatin-induced hepatotoxicity; parameters: method as in PMID 9782072; conditions: PRO 11–22 mg/kg body weight; cited from earlier work
[11] = rat, in vivo; cited from earlier work
[12] = BPX group: 500 mg/kg Bopu Powder in diet, 56 days, n = 6, LOD 1 ng/g wet weight

## COc1ccc2c(c1OC)CN(C)CCc1cc3c(cc1C(=O)C2)OCO3 [ALL, allocryptopine]
[1]
  number of key metabolites identified: five
[2]; intravenous 1 mg/kg bw, pooled plasma 5 to 120 min post-administration
  number of metabolites detected in pooled plasma: seven
[2]; intravenous 1 mg/kg·bw, blood 5–120 min, feces 48 h collection
  number of metabolites identified in plasma and feces: 9
[3]; BP group: 50 mg/kg Bopu Powder in diet, 56 days, n = 6, LOD 1 ng/g wet weight
  residues in kidney: 6.59 ± 4.61 ng/g
[3]; [12]
  residues in eggs: 12.29 ng/g and 12.29 ± 4.69 ng/g
  residues in kidney: 7.92 ± 4.12 ng/g
  residues in liver: 56.14 ± 9.39 ng/g
[3]; 50 mg/kg, residues in kidney, BP group: 50 mg/kg Bopu Powder in diet
  concentration at 56 days: 6.59 ng/g
[3]; 500 mg/kg, residues in kidney, BPX group: 500 mg/kg Bopu Powder in diet
  concentration at 56 days: 7.92 ng/g
[3]; 500 mg/kg, residues in liver, BPX group: 500 mg/kg Bopu Powder in diet
  concentration at 56 days: 56.1 ng/g
[4]
  number of metabolites detected: four
[5]
  number of metabolites detected: eight
[6]; 400 mg/kg feed Bopu Powder, 7 days
  residues in eggs throughout: undetectable
[6]; 2000 mg/kg feed Bopu Powder, 7 days
  residual levels 1 day after withdrawal: 8.61 µg/kg
[6]; 2000 mg/kg feed Bopu Powder
  residues 7 days post-withdrawal: residues persisted
[7]
  number of metabolites identified, including isomers: 25
[8]; rats, following ALL administration
  residues in urine, feces, plasma, and various tissues: < 3 ng/g

## protopine
[9]
  number of metabolites detected in fecal samples: Eleven
  number of metabolites detected in pooled plasma: two
  number of metabolites identified in plasma and feces: 12
[10]
  hepatoprotective effect: effectively counteracts carbon tetrachloride, acetaminophen, and simvastatin-induced hepatotoxicity
[11]
  time until concentrations fell below LOQ (10 ng/mL): ≤ 8 h
[8]; rat, in vivo
  highest residual level, liver at 48 h: 20.64 ng/g
  highest residual level, spleen at 24 h: 44.04 ng/g
  highest residue level, liver at 48 h (second statement): 61.8 ng/g
  residue levels in other tissues (second statement): below 6.5 ng/g
